Several values for one entry are separate records, joined by “and”; a condition that tells them apart may be missing. Equal values may be shown once.
System: THP-1 viability, CellTiter-Glo luminescence, 72 h
Test: THP-1 cell cytotoxicity, dose response, cytotoxicity control for Salmonella PhoP regulon inhibitors, S. typhimurium screen hits (AID 2253)

| SMILES | EC50 |
| --- | --- |
| CN(C)c1ccc(O)c2c1CC1CC3C(N(C)C)C(=O)C(C(N)=O)=C(O)[C@@]3(O)C(=O)C1=C2O (stereo not given in full) | 36.6 µM |
| C[C@H]1c2cccc(O)c2C(O)=C2C(=O)[C@]3(O)C(O)=C(C(N)=O)C(=O)[C@@H](N(C)C)[C@@H]3[C@@H](O)[C@@H]21 | 27.5 µM |
| O=C(c1ccccc1)c1c2c(cc3sc4ccccc4[n+]13)-c1cccc3cccc-2c13 | 1.28 µM |
| COc1ccc(-c2csc(NCc3ccco3)n2)cc1 | 38.5 µM |
| CCCCCCCCCC[n+]1cccc2c3ccccc3ccc21 | 0.6 µM |
| COc1ccc(NC2=NC3(CCCCC3)N=C(N)N2)cc1 | 35.1 µM |
| CCOc1ccc(Nc2nc(N)c3ccccc3n2)cc1 | 7.05 µM |
| COc1ccc2[nH]c3c(C)c4ccncc4c(C)c3c2c1 | 1.27 µM |
| COc1ccc(Nc2sc(C(=O)Nc3cccc(Cl)c3)c(N)c2C(=O)Nc2ccccc2OC)cc1 | 25.7 µM |
| COC(=O)c1c(C)oc2ccc(NS(=O)(=O)c3cccs3)cc12 | 48.4 µM |
| CCCCCCCCOC(=O)C1=C(C)Nc2nnnn2C1c1cccs1 (stereo not given) | 21.8 µM |
| O=C(N/N=C/c1c[nH]c2ccccc12)c1cc(-c2cccc3ccccc23)n[nH]1 | 13.8 µM |
| O=C1NC(=S)S/C1=C\C=C\c1ccc([N+](=O)[O-])o1 | 9.07 µM |
| Oc1ccc(CN2CCN(Cc3ccccc3)CC2)c2cccnc12 | 12.9 µM |
| Oc1ccc(Br)cc1-c1nc2cnccn2c1NC1CCCCC1 | 46.4 µM |
| Cc1cc(C)c2nc(NNC(=O)c3ccc(S(=O)(=O)N4CCc5ccccc5C4)cc3)sc2c1 | 1.69 µM |
| CN(O)/C=c1/ccc2c(n1)C(=O)C=CC=2 | 23.3 µM |
| C=COC(=O)CSc1snc(SCC(=O)OC)c1C#N | 32.3 µM |
| C#CCn1cc(/C=N/Nc2nc3ccccc3[nH]2)c2ccccc21 | 6.14 µM |
| Cc1cc(C2=NNC(=NC3CC3)SC2)c(C)n1-c1ccccc1 | 46.9 µM |
| CCN1CCN(C(c2ccc(C(F)(F)F)cc2)c2ccc3cccnc3c2O)CC1 (stereo not given) | 1.78 µM |
| Nc1ncn(C2O[C@H](CO)[C@@H](O)[C@H]2O)c(=O)n1 (stereo not given in full) | 10.8 µM |
| COc1ccccc1N1CCN(c2ccc(-c3ccccc3)nn2)CC1 | 2.61 µM |
| O=C(Cc1cccs1)Nc1cccc(-c2nc3cc4ccccc4cc3[nH]2)c1 | 12.5 µM |
| CCCCCCCCCCCCCCCC[N+](C)(C)CCN(Cc1ccc(OC)cc1)c1ncccn1 | 0.51 µM |
| Cc1ccc(S(=O)(=O)N(CC(=O)N=Nc2c(O)[nH]c3ccccc23)c2ccc(C)c(C)c2)cc1 | 12.4 µM |
| O=C(N/N=C/c1cc(O)ccc1Br)c1cccnc1 | 2.25 µM |

| SMILES | EC50 |
| --- | --- |
| Oc1ccc(C=Nc2ccc3ncccc3c2)c(O)c1 | 14.2 µM |
| OCCCNc1nc(-c2ccc(Cl)cc2)nnc1-c1ccc(Br)cc1 | 19.8 µM |
| CCCCCCNC(=O)c1cn(CC)c2cc(N3CCN(C)CC3)c(F)cc2c1=O | 16.1 µM |
| CCc1ccc2[nH]c(=O)c(CN(Cc3ccccc3)C(=O)Nc3ccccc3OC)cc2c1 | 43.1 µM |
| CCCCCOc1ccc(CSC(=N)N)cc1[N+](=O)[O-] | 7.91 µM |
| CCc1nn2cc(C(=O)c3cc(Cl)ccc3O)cnc2c1-c1ccc(F)cc1 | 38.3 µM |
| CNc1nc(NCc2ccccc2)c2ccccc2n1 | 10 µM |
| N/C(=N/OC(=O)c1ccccc1Cl)c1ncc([N+](=O)[O-])s1 | 18.8 µM |
| O=C(CN1CCCc2ccccc21)N/N=C/c1c(O)ccc2ccccc12 | 3.11 µM |
| CCCCC1(CCCC)C(=O)NC(=Nc2cccc(C)c2)NC1=O | 39.1 µM |
| Cc1cc(C(=O)N/N=C/c2cc(Br)cc([N+](=O)[O-])c2O)c2ccccc2n1 | 23 µM |
| c1ccc2c(C3=NNC(=NC4CCCCC4)SC3)c[nH]c2c1 | 19.1 µM |
| CCCCCNCC(=O)Nc1cccc(C(=O)Nc2cccc(C(F)(F)F)c2)c1 | 12.4 µM |
| Cc1cc(/C=N/n2c(COc3ccccc3C)nc3ccccc3c2=O)c(O)c([N+](=O)[O-])c1 | 2.52 µM |
| Cc1ccc(-n2c(C)cc(C3=NNC(=NC4CC4)SC3)c2C)cc1C | 21.4 µM |
| O=C(C[n+]1cc(-c2ccccc2)n2c1CCCCC2)c1ccc(Cl)cc1 | 28.9 µM |
| Cc1ccc(C(=O)CSC2=C(C#N)C(c3ccco3)CC(=O)N2)c(C)c1 (stereo not given) | 33.7 µM |
| S=C(Nc1cccc(Cl)c1)Nc1cccc2cnccc12 | 19 µM |
| Clc1ccc(C[n+]2cc(-c3ccc(Cl)cc3)n3c2CCC3)cc1 | 17.7 µM |
| O=C(N/N=C/c1ccc(O)cc1O)C(=O)N/N=C/c1ccc(O)cc1O | 6.9 µM |
| Nc1ccc(N(c2ccccc2)c2ccc(N)cc2)cc1 | 4.85 µM |
| O=C(NNC(=O)c1cnccn1)c1ccc(Cl)cc1 | 24.5 µM |
| O=C(c1cccs1)c1no[n+]([O-])c1C(=O)c1cccs1 | 2.61 µM |
| CCN(CC)CCOc1ccc2c(c1)C(=NNC(=O)c1ccccn1)c1cc(OCCN(CC)CC)ccc1-2 | 3.57 µM |
| Cc1ccc(-c2c[n+](CC(=O)Nc3nc(-c4ccc(F)cc4)cs3)c3n2CCC3)cc1 | 9.65 µM |
| Cc1[nH]c2ccccc2c1C(=O)COC(=O)c1ccc([N+](=O)[O-])s1 | 47.5 µM |
| Cc1ccccc1NC(=O)CCC(=O)N/N=C/c1cc([N+](=O)[O-])ccc1O | 19.5 µM |

| SMILES | EC50 |
| --- | --- |
| C#CCOCCOCCOCCNc1nc(N2CCN(C(=O)CCCCCCCCCCNC(=O)[C@H]([C@@H](C)CC)n3cc(CCCCN=C(N)N)nn3)CC2)nc(N2CCN(C(=O)CCCCCCCCCCNC(=O)[C@H](CCCN=C(N)N)n3cc(C[C@@H](C)CC)nn3)CC2)n1 | 3.57 µM |
| CCc1ccc(NC(=O)C[n+]2cc(-c3ccc(C)cc3)n3c2CCC3)cc1 | 5.74 µM |
| NC(=NCCCCCCN=C(N)/N=C(\N)Nc1ccc(Cl)cc1)/N=C(\N)Nc1ccc(Cl)cc1 | 3.09 µM and 3.04 µM and 2.9 µM |
| NC1=NC2(CCCCC2)N=C(Nc2ccc(Br)cc2)N1 | 2.8 µM |
| O=c1c(Br)c(Br)cnn1-c1ccccc1 | 1.27 µM |
| COc1ccc(N(C(=O)CCl)C(C(=O)NCCc2ccccc2)c2cccs2)cc1 (stereo not given) | 3.46 µM |
| COc1ccc(/C=C2\CN(Cc3ccccc3)C/C(=C\c3ccc(OC)cc3)C2=O)cc1 | 12.7 µM |
| O=C(CN1CCCC1)N/N=C/c1c(O)ccc2ccccc12 | 3.43 µM |
| Cc1ccc2[nH]c3c(NCc4ccccc4)ncnc3c2c1 | 17.1 µM |
| c1ccc(Cc2nnc(-c3ccccc3)o2)cc1 | 30.7 µM |
| CC(C)CCNC(=S)Nc1ccc([N+](=O)[O-])cc1 | 16.5 µM |
| CC[n+]1c(/C=C/c2ccc(N(C)C)cc2)ccc2ccccc21 | 0.64 µM |
| Cc1[nH]n(-c2ccccc2)c(=O)c1/C=N/Nc1nncc(-c2ccccc2)n1 | 0.57 µM |
| NC1=NC(=Nc2cccc(Cl)c2)c2ccccc21 | 32.4 µM |
| C1=C(CCNc2ncnc3c2[nH]c2ccccc23)CCCC1 | 6.37 µM |
| CC(C)(C)c1ccc(C(=O)NC(=S)NCc2cccnc2)cc1 | 46.5 µM |
| Clc1c(OCCCn2ccnc2)ccc2ccccc12 | 35.2 µM |
| CCCCCCCCCCCCCCCC[N+](C)(C)C | 0.79 µM |
| CN(C)CC(C(=O)c1ccccc1)c1ccccc1 (stereo not given) | 4.94 µM |
| CN1c2ccccc2C(C)(C)[C@]12C=Cc1cc(O)ccc1O2 | 15.4 µM |
| Cc1cc(C(=O)N/N=C/c2ccc([N+](=O)[O-])s2)n[nH]1 | 12.8 µM |
| Cc1ccc(S(=O)(=O)Nc2cc(Cl)c(O)c3ncccc23)cc1 | 1.55 µM |
| O=[N+]([O-])c1ccc(-n2nnnc2-c2ccccc2)c([N+](=O)[O-])c1 | 10.1 µM |
| C=CCN(C(=O)c1cccc(S(=O)(=O)N2CCN(C)CC2)c1)c1nc(-c2ccccc2)cs1 | 49.4 µM |
| COc1cccc(Nc2nc(-c3sc(NC(=O)c4ccco4)nc3C)cs2)c1 | 40.5 µM |
| CN1C(=O)/C(=C/c2cccn2-c2ccc3ccccc3c2)C(=O)NC1=S | 16.6 µM |

From PubChem BioAssay AID2253 (Southern Research Specialized Biocontainment Screening …, 2010)
